Data as given in patent US20240382600A1, “BIFUNCTIONAL DEGRADERS COMPRISING A TEAD BINDER” (Novartis AG, priority 2021, published 2024).

Experiments:
[1] = tested on: YAP-dependent transcription in NCI-H2052 Tet-On shYAP_2371 pLenti6 MCAT_Luc cells; assay: YAP reporter gene activity assay (MCAT-Luc), NCI-H2052; format: cell-based; details: Homo sapiens, 24 hrs
[2] = tested on: SF268-MCAT_Luc_dox-i-shYAPLevy (Clone 13) cells; assay: Proliferation assay (resazurin/AlamarBlue), SF268; format: cell-based; details: Homo sapiens, SF-268; SF268, 72 hours
Source text: (§1) NCI-H2052 mesothelioma cells (RRID: CVCL_1518) bearing Hippo-pathway inactivating mutations upstream of YAP (homozygous deletion of LATS2 and mutation of NF2) were obtained from ATCC (American Type Culture Collection), while SF268 glioma cells (RRID: CVCL_1689) overexpressing YAP due to genomic amplification were obtained from the NCI (National Cancer Institute). MKN-45 gastric adenocarcinoma cells (RRID: CVCL_0434) genomically deleted for YAP were obtained from the JCRB (Japanese Collection of Research Bioresources) Cell Bank.
(§2) Stock solutions of compounds were prepared at a concentration of 10 mM in DMSO and stored at 4° C. Where necessary to afford a full dose-response curve, the stock solutions were pre-diluted in DMSO to 1′000-fold the desired reduced start concentration. On the day after cell seeding, eleven 2-fold serial dilutions of each compound were dispensed directly into the cell assay plates using a HP 300D non-contact Digital Dispenser (TECAN). The final concentration of DMSO was normalized to 0.1% in all wells.
(§3) After incubation for 72 hours at 37° C., compound-mediated modulation of cell viability was quantified as follows. […] To enable differentiation of cytotoxic from cytostatic compound effects, the number of viable cells on the day of compound addition (day 0) was assessed in a separate cell plate and used to assess the extent of cell viability suppression as described in the following section.
(§4) For data analysis, the assay background value determined in wells containing medium, but no cells, was subtracted from all data points.
(§5) The extent of growth inhibition and potential cell kill was assessed by comparing the resorufin levels in compound-treated cells with those present at the time of compound addition. To this end, the following conditional concept was programmatically applied in HELIOS to calculate % growth (% G) for each compound-treated well: % G=(T−V0)/V0))*100 when T<V0, and % G=(T−V0)/(V−V0)))*100 when T≥V0, where V0 is the viability level at time of compound addition, while V and T represent vehicle-control and compound-treated viability levels, respectively, at the end of the compound incubation. 100%, 0% and −100% signify absence of growth inhibition, growth stasis, and complete cell kill, respectively. Compound concentrations leading to half-maximal growth inhibition (GI50) and residual cell viability at the highest tested compound concentration (Data(cmax), expressed in percent) were routinely calculated.

[3] = tested on: NCI-H2052 Tet-On shYAP_2371 pLenti6 MCAT_Luc cells; assay: Proliferation assay (resazurin/AlamarBlue), NCI-H2052; format: cell-based; details: Homo sapiens; NCI-H2052, 72 hours
Source text: as §1, §2, §3, §4, §5

MKN-45/Ubc-luc cells = assay: Proliferation assay (resazurin/AlamarBlue), MKN-45; format: cell-based; details: Homo sapiens; MKN-45, 72 hours
Source text: as §1
As a specificity control, MKN-45 cells were stably transduced with a Ubc-Luc reporter construct, in which constitutive expression of firefly luciferase is driven by the promoter of the ubiquitin C housekeeping gene.
as §2, §3, §4, §5

[4] = tested on: MKN-45/Ubc-luc cells (unspecific inhibition of luciferase expression or activity); assay: Reporter gene assay specificity control (Ubc-Luc), MKN-45; format: cell-based; details: Homo sapiens; MKN-45/Ubc-luc specificity control, 24 hrs
Source text: as §1
As a specificity control, MKN-45 cells were stably transduced with a Ubc-Luc reporter construct, in which constitutive expression of firefly luciferase is driven by the promoter of the ubiquitin C housekeeping gene. The resulting cell line, MKN-45/Ubc-luc, was selected and maintained in growth medium (RPMI 1640 (Amimed Cat #1-41F01-I), 2 mM L-Glutamine (Amimed Cat #5-10K50-H), 10% fetal calf serum (Amimed Cat #2-01F30-I Lot K08815P), 1% MEM Non-essential amino acids (Amimed Cat #5-13K00-H), 1× Penicillin/Streptomycin (Amimed Cat #4-01F00-H)) containing 1 μg/ml blasticidin (Gibco Cat #A11139-03).
as §2
The ability of compounds to inhibit YAP-dependent transcription was assessed in NCI-H2052 Tet-On shYAP_2371 pLenti6 MCAT_Luc and SF268-MCAT_Luc, dox-i-shYAPLevy (Clone 13) cells, while specificity (lack of unspecific inhibition of luciferase expression or activity) was assessed in MKN-45/Ubc-luc cells. The individual cell lines were seeded at 2′500 cells/20 μl/well into white-wall, clear-bottom 384-well plates (Greiner, Cat #781098) and incubated over night at 37° C. prior to addition of serial compound dilutions as described above. Following incubation for 24 hrs at 37° C., compound-mediated modulation of reporter-gene activity was quantified 5 min after addition 20 μL […] BrightGlo (Promega Cat #E2620), by measuring luminescence intensity on a multi-mode plate-reader (TECAN) with an integration time of 100 ms.
as §4

[5] = molecular target: TEAD1-GFP in HEK293A cells (Homo sapiens (Human), UniProt P28347); assay: TEAD1 protein abundance flow cytometry assay in HEK293A; format: cell-based; details: HEK293A TEAD1-GFP-CHYSEL-mCherry sensor cells, 24 h, GFP signal by flow cytometry
Experimental: Degradation of TEAD1 was measured in HEK293A cells (Invitrogen R70507) expressing TEAD1-GFP and mCherry from a stably integrated bicistronic TEAD1-GFP-CHYSEL-mCherry construct. Reduction of the GFP signal measured by flow cytometry served as readout for TEAD1 degradation after degrader treatment.
Stable HEK293A sensor cells were maintained in complete growth medium (DMEM high Glucose+10% FCS+1% L-Glutamine+1% NEAA+1% NaPyr.+4 μg/mL blasticidin) with passaging performed twice per week. On Day 0, stable HEK293A sensor cells were seeded at 5,000 cells/well in a 96-well microtiter plate in 100 μL complete medium. On Day 1, cells were treated in duplicate with 10-point 1:3 dilution series of compound using the HP D300 Digital Dispenser (Tecan). DMSO concentrations were normalized across the plate to 0.1%. On Day 2, after 24 h of incubation at 37° C., treatment media was discarded, cells rinsed with 100 μL/well PBS and then detached using 40 μL trypsin/well for 5 min. Trypsin was neutralized with 100 μL/well PBS+20% FCS).
Flow cytometry was performed on the samples using the CytoFlex S (Beckman Coulter). Cell identification was then performed using forward (FSC) vs. side scatter (SSC) plots. Single cell discrimination was performed using SSC-Width (SSC-W) vs. SSC-Height (SSCH) plots. Median GFP values for 2,500 single cells were used to determine TEAD1 levels. Median GFP values from HEK293A were used as a background signal and thus defining 0% TEAD1 signal. Median GFP values from DMSO treated HEK293A TEAD1-GFP CHYSEL-mCherry were used to define 100%
TEAD1 signal for subsequent DC50 curves (concentration at 50% TAED1 degradation). GFP and RFP were read in the channels called FITC and PE, respectively. Concentration response curves plotting relative reduction of the GFP signal (measured by flow cytometry) versus 10 compound concentrations (starting concentration 10 μM, 3 fold dilution steps) of the compounds allowed generation of DC50 values.

[6] = molecular target: Avi-humanTEAD4^217-434 / Cy5 labeled humanYAP^60-100 (Homo sapiens (Human), UniProt Q15561); assay: In-vitro biochemical TR-FRET assay (TEAD4/YAP); format: binding; details: 1 h at room temperature
Experimental: N-terminus Cy5 labeled humanYAP^60-100 (20 nM) was then added to this preparation. Compounds were dissolved at 10 mM in 100% DMSO and serial dilutions were made in 100% DMSO. The diluted compound solutions were incubated in white 384-well plates (Greiner Bio-One) for 1 h at room temperature with the above described mix. The final DMSO concentration present in the assay was 1%. […] The IC50 values were estimated by fitting the data by nonlinear fit regression (GraphPad Prism).

[7] = tested on: YAP-dependent transcription in SF268-MCAT_Luc_dox-i-shYAPLevy (Clone 13) cells; assay: YAP reporter gene activity assay (MCAT-Luc), SF268; format: cell-based; details: Homo sapiens, SF-268; SF268 MCAT_Luc, 24 hrs

Avi-humanTEAD4^217-434 / Cy5 labeled humanYAP^60-100, sequence (Q15561 217-434): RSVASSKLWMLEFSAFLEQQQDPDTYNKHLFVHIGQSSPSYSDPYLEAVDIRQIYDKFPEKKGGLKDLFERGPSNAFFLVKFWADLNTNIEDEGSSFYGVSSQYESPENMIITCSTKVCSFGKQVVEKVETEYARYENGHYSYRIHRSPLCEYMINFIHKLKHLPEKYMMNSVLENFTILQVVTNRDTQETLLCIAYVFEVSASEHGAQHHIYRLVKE
TEAD1-GFP in HEK293A cells, sequence (P28347 whole entry): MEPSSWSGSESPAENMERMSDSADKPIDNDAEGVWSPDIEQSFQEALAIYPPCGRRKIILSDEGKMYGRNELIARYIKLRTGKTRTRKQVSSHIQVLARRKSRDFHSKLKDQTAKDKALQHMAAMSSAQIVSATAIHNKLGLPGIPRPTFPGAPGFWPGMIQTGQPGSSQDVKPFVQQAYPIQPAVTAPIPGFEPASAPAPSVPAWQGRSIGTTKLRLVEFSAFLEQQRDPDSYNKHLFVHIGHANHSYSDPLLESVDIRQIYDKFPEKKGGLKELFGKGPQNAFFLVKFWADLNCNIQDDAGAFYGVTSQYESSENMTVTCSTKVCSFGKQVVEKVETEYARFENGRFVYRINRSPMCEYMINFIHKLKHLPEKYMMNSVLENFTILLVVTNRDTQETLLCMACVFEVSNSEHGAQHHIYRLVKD

Compound	IC50 [1]	GI50 [3]	GI50 (MKN-45/Ubc-luc cells)	IC50 [4]	DC50 [5]	IC50 [6]	IC50 [7]	GI50 [2]
COc1ccc(C(N)=O)c(-c2c(Cl)c(F)cc3c2[C@H](C)[C@@](CN[C@H]2CC[C@H](C(=O)N4CCC(CN5CCN(C(=O)COc6ccc(C)c(N7CCC(=O)NC7=O)c6)CC5)CC4)CC2)(c2ccccc2)O3)c1F (atropisomer, axis not shown) [Example 12, 2-((2S,3S,4S)-5-chloro-2-((((1r,4S)-4-(4-((4-(2-(3-(2,4-dioxotetrahydropyrimidin-1(2H)-yl)-4-methylphenoxy)acetyl)piperazin-1-yl)methyl)piperidine-1-carbonyl)cyclohexyl)amino)methyl)-6-fluoro-3-methyl-2-phenyl-2,3-dihydrobenzofuran-4-yl)-3-fluoro-4-methoxybenzamide]	0.004 µM	0.015 µM	> 2 µM	> 2 µM	0.001 µM	0.0016 µM	0.00038 µM	0.02 µM
COc1ccc(C(=O)N2CCC3(CCN(CCNC(=O)[C@H]4CC[C@H](NC[C@]5(c6ccccc6)Oc6cc(F)c(Cl)c(-c7c(C(N)=O)ccc(OC)c7F)c6[C@@H]5C)CC4)CC3)CC2)cc1N1CCC(=O)NC1=O (atropisomer, axis not shown) [Example 5, 2-((2S,3S,4S)-5-chloro-2-((((1r,4S)-4-((2-(9-(3-(2,4-dioxotetrahydropyrimidin-1(2H)-yl)-4-methoxybenzoyl)-3,9-diazaspiro[5.5]undecan-3-yl)ethyl)carbamoyl)cyclohexyl)amino)methyl)-6-fluoro-3-methyl-2-phenyl-2,3-dihydrobenzofuran-4-yl)-3-fluoro-4-methoxybenzamide]	0.16 µM	0.36 µM	> 20 µM	> 20 µM	0.035 µM	< 0.001 µM	0.0025 µM	0.089 µM
COc1ccc(C(=O)N2CCN(CC3CCN(CCNC(=O)[C@H]4CC[C@H](NC[C@]5(c6ccccc6)Oc6cc(F)c(Cl)c(-c7c(C(N)=O)ccc(OC)c7F)c6[C@@H]5C)CC4)CC3)CC2)cc1N1CCC(=O)NC1=O (atropisomer, axis not shown) [Example 3, 2-((2S,3S,4S)-5-chloro-2-((((1r,4S)-4-((2-(4-((4-(3-(2,4-dioxotetrahydropyrimidin-1(2H)-yl)-4-methoxybenzoyl)piperazin-1-yl)methyl)piperidin-1-yl)ethyl)carbamoyl)cyclohexyl)amino)methyl)-6-fluoro-3-methyl-2-phenyl-2,3-dihydrobenzofuran-4-yl)-3-fluoro-4-methoxybenzamide]	0.098 µM	0.32 µM	> 20 µM	> 20 µM	0.006 µM	< 0.001 µM	0.0016 µM	0.054 µM

Now from value to molecule, other results behind:

IC50 [1]	GI50 [3]	GI50 (MKN-45/Ubc-luc cells)	IC50 [4]	DC50 [5]	IC50 [6]	IC50 [7]	Compound	GI50 [2]
0.35 µM	1.19 µM	> 2 µM	> 2 µM	0.112 µM	0.0012 µM	0.0035 µM	COc1ccc(C(=O)N2CCN(CC3CN(C(=O)[C@H]4CC[C@H](NC[C@]5(c6ccccc6)Oc6cc(F)c(Cl)c(-c7c(C(N)=O)ccc(OC)c7F)c6[C@@H]5C)CC4)C3)CC2)cc1N1CCC(=O)NC1=O (atropisomer, axis not shown) [Example 9, 2-((2S,3S,4S)-5-chloro-2-((((1r,4S)-4-(3-((4-(3-(2,4-dioxotetrahydropyrimidin-1(2H)-yl)-4-methoxybenzoyl)piperazin-1-yl)methyl)azetidine-1-carbonyl)cyclohexyl)amino)methyl)-6-fluoro-3-methyl-2-phenyl-2,3-dihydrobenzofuran-4-yl)-3-fluoro-4-methoxybenzamide]	0.12 µM
0.032 µM	0.035 µM	0.033 µM	0.044 µM	–	0.0072 µM	0.023 µM	COc1ccc(C(N)=O)c(-c2c(Cl)c(F)cc3c2[C@H](C)[C@@](CNCCCCCc2cccc4c2CN(C2CCC(=O)NC2=O)C4=O)(c2ccccc2)O3)c1F (stereo partly drawn) [Example 35, 2-((2S,3S,4S)-5-chloro-2-(((5-(2-(2,6-dioxopiperidin-3-yl)-1-oxoisoindolin-4-yl)pentyl)amino)methyl)-6-fluoro-3-methyl-2-phenyl-2,3-dihydrobenzofuran-4-yl)-3-fluoro-4-methoxybenzamide]	< 0.02 µM
